Test results: PMC3448056, “2-Benzamido-N-(1H-benzo[d]imidazol-2-yl)thiazole-4-carboxamide derivatives as potent inhibitors of CK1δ/ε” (Amino Acids, 2012)
Several values for one entry are separate records, joined by “and”; a condition that tells them apart may be missing. Identical values can stand only once.

Columns and labels:
DU-145 cells = assay: Flow cytometry cell cycle analysis; assay type: cell-based, human; details: 48 h (data not shown); for dead cells: DU-145, 2 or 4 μM
Procedure: (§1) Frwt648 cells [generated by SV40-transformation of F111 cells; (Hinzpeter and Deppert [1987])] and mKSA cells [SV40-transformed Balb/c fibroblasts; (Kit et al. [1969])] were grown in Dulbecco’s modified Eagle’s medium (DMEM) supplemented with 5% fetal calf serum (FCS; Biochrom, Berlin, Germany). The fibrosarcoma cell line HT1080 (Rasheed et al. [1974]) was grown in DMEM containing 10% FCS and 2 mM glutamine while both the prostate cancer cell line DU-145 (Stone et al. [1978]) and the ovary tissue cancer cell line OVCAR-3 (Hamilton et al. [1983]) were maintained in RPMI-1640 supplemented with 10% FCS. The pancreatic cancer cell line Colo357 (Morgan et al. [1980]) was grown in DMEM/RPMI (1:1) and the colon adenocarcinoma cell line SW480 (Leibovitz et al. [1976]) in Leibovitz L-15 medium, both containing 10% FCS and 2 mM glutamine. All media were supplemented with 100 U/ml penicillin and 100 μg/ml streptomycin (Gibco, Karlsruhe, Germany) and all cell lines were grown at 37°C in a humidified 5% carbon dioxide atmosphere.
(§2) Subconfluent Frwt648, mKSA, Colo357, OVCAR-3, HT1080, DU-145 and SW480 cells were treated with 2 or 4 μM of compounds 5 or 6 for 48 h. Untreated and DMSO treated cells served as control. Cells were harvested, washed once with phosphate-buffered saline (PBS), and prepared for cell cycle analysis using the “Cycle Test Plus Kit” (BD, San Jose, USA). Cell cycle profiles were obtained using a FACScan flow cytometer and CellQuest software (BD Biosciences, San Jose, USA).

SW480 cells = assay: Flow cytometry cell cycle analysis; assay type: cell-based, human; details: SW480, 2 or 4 μM, 48 h (data not shown)
Procedure: as §1, §2

OVCAR-3 cells = assay: Flow cytometry cell cycle analysis; assay type: cell-based, human; details: 48 h
Procedure: as §1, §2

HT1080 cells = assay: Flow cytometry cell cycle analysis; assay type: cell-based, human; details: HT1080, 2 or 4 μM, 48 h (data not shown)
Procedure: as §1, §2

Colo357 cells = assay: Flow cytometry cell cycle analysis; assay type: cell-based, human; details: Colo357, 2 or 4 μM, 48 h
Procedure: as §1, §2

mKSA cells = assay: Flow cytometry cell cycle analysis; assay type: cell-based, mouse; details: 2 and 4 μM, 48 h, range stated jointly for Frwt648 and mKSA and compounds 5 and 6
Procedure: as §1
(§3) Subconfluent Frwt648, mKSA, Colo357, OVCAR-3, HT1080, DU-145 and SW480 cells were treated with 2 or 4 μM of compounds 5 or 6 for 48 h. Untreated and DMSO treated cells served as control. Cells were harvested, washed once with phosphate-buffered saline (PBS), and prepared for cell cycle analysis using the “Cycle Test Plus Kit” (BD, San Jose, USA). […]

human CK1ε = target: T1, human CK1ε (Homo sapiens, UniProt P49674); assay: In vitro kinase assay, CK1ε; assay type: biochemical; details: for inhibition of CK1ε in initial screen: inhibitor 10 μM, 10 μM ATP (Fig. 1b)
T1 construct: purchased Invitrogen, Karlsruhe, Germany
T1 sequence (P49674 whole entry): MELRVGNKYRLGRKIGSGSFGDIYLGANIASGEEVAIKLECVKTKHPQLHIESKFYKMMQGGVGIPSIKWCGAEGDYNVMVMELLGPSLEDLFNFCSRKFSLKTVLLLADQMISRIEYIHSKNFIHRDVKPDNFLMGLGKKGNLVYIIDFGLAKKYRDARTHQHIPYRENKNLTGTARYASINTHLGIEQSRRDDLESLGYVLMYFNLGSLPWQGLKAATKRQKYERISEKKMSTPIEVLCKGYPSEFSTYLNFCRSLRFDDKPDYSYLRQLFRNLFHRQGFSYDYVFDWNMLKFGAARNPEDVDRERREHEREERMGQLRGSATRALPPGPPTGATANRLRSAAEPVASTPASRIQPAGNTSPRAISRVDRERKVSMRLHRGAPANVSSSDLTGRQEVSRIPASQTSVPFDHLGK

Frwt648 cells = assay: Flow cytometry cell cycle analysis; assay type: cell-based; details: Frwt648, 2 and 4 μM, 48 h; range stated jointly for Frwt648 and mKSA and compounds 5 and 6
Procedure: as §1, §3

GST-rat CK1δ = target: T2, GST-rat CK1δ (Rattus norvegicus, UniProt Q06486); assay: In vitro kinase assay, GST-rat CK1δ; assay type: biochemical; details: for GST-wt CK1δ activity in the presence of inhibitor: inhibitor at its determined IC50 concentration (Fig. 7)
T2 construct: made in house; host or cells: bacteria (pGEX-2T)
T2 sequence (Q06486 whole entry): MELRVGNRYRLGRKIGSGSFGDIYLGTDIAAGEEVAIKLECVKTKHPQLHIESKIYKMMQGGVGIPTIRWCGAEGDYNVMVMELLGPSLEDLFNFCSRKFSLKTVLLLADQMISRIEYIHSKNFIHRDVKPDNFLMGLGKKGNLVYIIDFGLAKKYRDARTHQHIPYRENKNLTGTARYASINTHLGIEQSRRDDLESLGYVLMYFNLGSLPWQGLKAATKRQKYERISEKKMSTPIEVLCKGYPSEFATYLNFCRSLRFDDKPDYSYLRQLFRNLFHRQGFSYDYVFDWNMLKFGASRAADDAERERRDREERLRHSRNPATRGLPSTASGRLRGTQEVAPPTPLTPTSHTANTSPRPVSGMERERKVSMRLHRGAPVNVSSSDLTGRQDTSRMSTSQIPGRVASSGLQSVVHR

CK1δkd = target: T3, CK1δkd (Rattus norvegicus, UniProt Q06486); assay: In vitro kinase assay, CK1δ kinase domain; assay type: biochemical; details: for inhibition of CK1δkd in initial screen: inhibitor 10 μM, 10 μM ATP (Fig. 1a); for mode of inhibition: inhibitor at IC50 concentration, ATP 0.01-0.5 mM (Fig. 6)
T3 construct: Recombinant CK1δ kinase domain (CK1δkd, NEB, Frankfurt am Main, Germany); purchased NEB, Frankfurt am Main, Germany
T3 sequence (Q06486 9-277 limits assumed): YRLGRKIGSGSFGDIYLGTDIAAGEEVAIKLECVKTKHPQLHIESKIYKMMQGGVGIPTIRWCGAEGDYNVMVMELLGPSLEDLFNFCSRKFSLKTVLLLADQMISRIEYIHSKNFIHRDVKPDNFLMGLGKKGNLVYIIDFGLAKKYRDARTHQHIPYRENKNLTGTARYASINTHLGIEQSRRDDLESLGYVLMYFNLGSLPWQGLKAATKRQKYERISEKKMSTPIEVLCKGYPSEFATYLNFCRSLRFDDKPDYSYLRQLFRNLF

[1] = 0.01 mM ATP, substrate GST-mouse p53^1-64, mean ± SD

Row | inhibition of CK1ε in initial screen (human CK1ε) | GST-wt CK1δ activity in the presence of inhibitor (GST-rat CK1δ) | higher affinity towards CK1δ than to CK1ε (GST-rat CK1δ; ratio of IC50 values CK1ε / CK1δ) | inhibition of CK1δkd in initial screen (CK1δkd) | mode of inhibition (CK1δkd) | IC50 (human CK1ε; [1]) | IC50 (GST-rat CK1δ; [1]) | IC50 (CK1δkd; [1]) | SMILES | susceptibility of DU-145 to treatment (DU-145 cells; 2 or 4 μM) | dead cells (DU-145 cells) | dead cells (SW480 cells) | effect on cell cycle distribution (OVCAR-3 cells; OVCAR-3, 2 or 4 μM) | dead cells (HT1080 cells) | effect on cell cycle distribution (Colo357 cells) | dead cells (mKSA cells) | dead cells (Frwt648 cells) | cells died upon treatment (OVCAR-3 cells; OVCAR-3, 4 μM)
1 | significant inhibition | clearly decreased | fivefold | significant inhibition | ATP competitive inhibitors |  |  |  | O=C(Nc1nc2ccc(C(F)(F)F)cc2[nH]1)c1csc(NC(=O)c2ccccc2OC(F)(F)F)n1 [Compound 5, 2-(2-(Trifluoromethoxy)benzamido)-N-(6-(trifluoromethyl)-1H-benzo[d]imidazol-2-yl)thiazole-4-carboxamide] | unsusceptible | ≤ 20% | ≤ 20% | slight increase of cells in the G2 phase | ≤ 20% | more cells appeared to be in the G1 phase | 35–98% | 35–98% | 
2 | significant inhibition | clearly decreased |  | significant inhibition | ATP competitive inhibitors | 0.0326 µM and 0.033 µM | 0.042 ± 0.05 µM | 0.085 ± 0.01 µM | O=C(Nc1nc2cc(Cl)c(F)cc2[nH]1)c1csc(NC(=O)c2ccccc2OC(F)(F)F)n1 [Compound 6, N-(5-Chloro-6-fluoro-1H-benzo[d]imidazol-2-yl)-2-(2-(trifluoromethoxy)benzamido)thiazole-4-carboxamide] |  | ≤ 20% | ≤ 20% |  | ≤ 20% | more cells appeared to be in the G1 phase | 35–98% | 35–98% | 39%
